Where two headings read alike, the source gives them in different places.
Tests used:
[1] = system: CDI; conditions: Phase III studies, mITT analysis; cited from earlier work
[2] = system: Clostridium difficile infections (CDI); conditions: cited from earlier work
[3] = system: Clostridium difficile toxin A and B; test: Single patient cases of Examples 6 and 7, indicator-guided switch to intermittent fidaxomicin; format: in vivo, human
Procedure: (§1) A patient being tested positively for Clostridium difficile toxin A and B (using a suitable assay known in the art) and having >5 UBM per day is treated with 200 mg Fidaxomicin twice a day in an initial course of treatment. The number of UBM is monitored daily to establish if the number of UBM will change positively to ≤3 UBM per day. At day 2 of the initial course of treatment the UBM is reduced to 2 UBM per day and at day 3 to 1 UBM per day. Since the UBM is below 4 UBM per day and even below 3 UBM per day for 2 consecutive days, the dosage regimen is switched to the intermittent course of treatment by administering to the patient 200 mg Fidaxomicin every other day starting from day 5 until Clostridium difficile toxin A and B are tested negative. The presence of Clostridium difficile toxin A and B is tested negative at day 12 after start of treatment (using a suitable assay known in the art).
as §1, with “day 9 and 10” for “day 2”, “to” for “to 2 UBM per day and at day”, “3” for “3 to 1”, “4” for “4 UBM per day and even below 3”, “day 12” for “day 5”, “day 27” for “day 12”

[4] = oral administration; cited from earlier work
[5] = system: Clostridium difficile infection; test: Phase IIIb/IV randomized open-label EXTEND study (2819-MA-1002): extended fidaxomicin vs standard vancomycin; format: in vivo, human
Procedure: Fidaxomicin (FDX) is believed to reduce recurrence primarily through minimal collateral damage to colonic microflora. […] Subjects will receive 200 mg twice daily (b.i.d.) for 5 days from Day 1 to Day 5. From Day 6 to Day 25, subjects will receive 200 mg once daily on alternate days (first alternate day dose given on Day 7). This extension of the dose will allow a longer period for the protective microflora to recover and extend the period of time over which Clostridium difficile cells are suppressed, and kill any dormant spores that germinate. The extension of the dose also targets the early recurrence period documented in the phase 3 studies—the first 15 days after the end of therapy during which the majority of recurrences occurred. By covering this period this revised dosing regimen may reduce the recurrence to <10%, preferably to <5% and even more preferred to <3%. The impact on the gut microflora was limited supporting the rationale for this study.
The dosing of vancomycin (Vancocin™) to be administered in this study is in line with the SmPC for Vancocin. Subjects will receive 125 mg four times daily (q.i.d.) for 10 days from Day 1 to Day 10.
The dosage regimen was as described in Table 1 of Example 1.

[6] = in vitro BCS study; low solubility, low permeability; cited from earlier work
[7] = system: Clostridium difficile infection; conditions: Cornely 2012; 200 mg Fidaxomicin twice daily or vancomycin 125 mg four times daily orally for 10 days; cited from earlier work
[8] = FID-CH: 10-day fidaxomicin chaser after repeat CDI treatment, 8 courses, excluding RCDI due to antimicrobial exposure
[9] = FID-TX: 200 mg BID for 10 days, of 3 courses
[10] = Day 55, extended fidaxomicin or standard vancomycin
[11] = Table 7, extended fidaxomicin regimen of Example 1 or standard vancomycin
[12] = extended fidaxomicin Day 55, standard vancomycin Day 40

## CCc1c(Cl)c(O)c(Cl)c(O)c1C(=O)O[C@H]1[C@H](O)[C@H](OC)[C@H](OC/C2=C\C=C\C[C@H](O)/C(C)=C/[C@H](CC)[C@@H](O[C@@H]3OC(C)(C)[C@@H](OC(=O)C(C)C)[C@H](O)[C@@H]3O)/C(C)=C/C(C)=C/C[C@@H]([C@@H](C)O)OC2=O)O[C@@H]1C [fidaxomicin, 3-[[[6-deoxy-4-O-(3,5-dichloro-2-ethyl-4,6-dihydroxybenzoyl)-2-O-methyl-β-D-mannopyranosyl]oxy]methyl]-12(R)-[[6-deoxy-5-C-methyl-4-O-(2-methyl-1-oxopropyl)-β-D-lyxo-hexopyranosyl]oxy]-11 (S)-ethyl-8(S)-hydroxy-18(S)-(1(R)-hydroxyethyl)-9,13,15-trimethyloxacyclooctadeca-3,5,9,13,15-pentaene-2-one]
[1]
  Recurrence of CDI: 14.1%
[2]; 18 courses of fidaxomicin in 14 patients with RCDI
  Courses resulting in treatment success: 18
[2]; [8]
  RCDI: 2
  RCDI (%): 25%
[2]; FID-TP: taper 200 mg daily 7 days then 200 mg QOD 7-26 days, 7 courses
  RCDI: no RCDI
[2]; [9]
  RCDI episodes: 2
  RCDI episodes (%): 66%
[2]; following FID-CH
  Average symptom-free interval (SFI): 240 days
[2]; following FID-TP
  Average symptom-free interval (SFI): 150 days
[2]; following FID-TX
  Average symptom-free interval (SFI): 73 days
[3]; Example 6 patient, day 2 of initial course 200 mg twice a day, >5 UBM per day before
  UBM per day: 2 UBM per day
[3]; Example 6 patient, day 3 of initial course 200 mg twice a day
  UBM per day: 1 UBM per day
[3]; Example 6 patient, day 12 after start of treatment, 200 mg every other day from day 5
  Presence of Clostridium difficile toxin A and B: negative
[3]; Example 7 patient, day 9 and 10 of initial course 200 mg twice a day, >5 UBM per day before
  UBM per day: 3 UBM per day
[3]; Example 7 patient, day 27 after start of treatment, 200 mg every other day from day 12
  Presence of Clostridium difficile toxin A and B: negative
[4]
  Absorption from the intestinal tract: poorly absorbed
[5]; 30 days after end of treatment
  Treatment Difference in sustained clinical cure rate (Extended Fidaxomicin − Standard Vancomycin): 23.8%
[5]; 30 days after end of treatment, extended fidaxomicin
  OR (Odds Ratio) vs. Vancomycin, sustained clinical cure: 3.36
[5]; Day 1
  % of patients with <3 Unformed bowel movements per day (UBM): 23%
  % of patients with ≥3 Unformed bowel movements per day (UBM): 77.0%
[5]; Day 2
  % of patients with <3 Unformed bowel movements per day (UBM): 33.8%
  % of patients with ≥3 Unformed bowel movements per day (UBM): 66.2%
[5]; Day 3
  % of patients with <3 Unformed bowel movements per day (UBM): 59%
  % of patients with ≥3 Unformed bowel movements per day (UBM): 41%
[5]; Day 4
  % of patients with <3 Unformed bowel movements per day (UBM): 66.9%
  % of patients with ≥3 Unformed bowel movements per day (UBM): 33.1%
[5]; Day 5
  % of patients with <3 Unformed bowel movements per day (UBM): 73.9%
  % of patients with ≥3 Unformed bowel movements per day (UBM): 26.1%
[5]; Day 6
  % of patients with <3 Unformed bowel movements per day (UBM): 73.9%
  % of patients with ≥3 Unformed bowel movements per day (UBM): 26.1%
[5]; Day 7
  % of patients with <3 Unformed bowel movements per day (UBM): 84.8%
  % of patients with ≥3 Unformed bowel movements per day (UBM): 15.2%
[5]; Day 8
  % of patients with <3 Unformed bowel movements per day (UBM): 89.1%
  % of patients with ≥3 Unformed bowel movements per day (UBM): 10.9%
[5]; Day 9
  % of patients with <3 Unformed bowel movements per day (UBM): 91.3%
  % of patients with ≥3 Unformed bowel movements per day (UBM): 8.7%
[5]; Day 10
  % of patients with <3 Unformed bowel movements per day (UBM): 92.6%
  % of patients with ≥3 Unformed bowel movements per day (UBM): 7.4%
[5]; Day 11
  % of patients with <3 Unformed bowel movements per day (UBM): 93.3%
  % of patients with ≥3 Unformed bowel movements per day (UBM): 6.7%
[5]; Day 12
  % of patients with <3 Unformed bowel movements per day (UBM): 94.8%
  % of patients with ≥3 Unformed bowel movements per day (UBM): 5.2%
[5]; Day 13
  % of patients with <3 Unformed bowel movements per day (UBM): 93.3%
  % of patients with ≥3 Unformed bowel movements per day (UBM): 6.7%
[5]; Day 14
  % of patients with <3 Unformed bowel movements per day (UBM): 95.6%
  % of patients with ≥3 Unformed bowel movements per day (UBM): 4.4%
[5]; Day 15
  % of patients with <3 Unformed bowel movements per day (UBM): 94.8%
  % of patients with ≥3 Unformed bowel movements per day (UBM): 5.2%
[5]; Day 16
  % of patients with <3 Unformed bowel movements per day (UBM): 95.5%
  % of patients with ≥3 Unformed bowel movements per day (UBM): 4.5%
[5]; Day 17
  % of patients with <3 Unformed bowel movements per day (UBM): 95.5%
  % of patients with ≥3 Unformed bowel movements per day (UBM): 4.5%
[5]; Day 18
  % of patients with <3 Unformed bowel movements per day (UBM): 94.0%
  % of patients with ≥3 Unformed bowel movements per day (UBM): 6.0%
[5]; Day 19
  % of patients with <3 Unformed bowel movements per day (UBM): 95.5%
  % of patients with ≥3 Unformed bowel movements per day (UBM): 4.5%
[5]; Day 20
  % of patients with <3 Unformed bowel movements per day (UBM): 97.8%
  % of patients with ≥3 Unformed bowel movements per day (UBM): 2.2%
[5]; Day 21
  % of patients with <3 Unformed bowel movements per day (UBM): 95.5%
  % of patients with ≥3 Unformed bowel movements per day (UBM): 4.5%
[5]; Day 22
  % of patients with <3 Unformed bowel movements per day (UBM): 96.3%
  % of patients with ≥3 Unformed bowel movements per day (UBM): 3.7%
[5]; Day 23
  % of patients with <3 Unformed bowel movements per day (UBM): 95.5%
  % of patients with ≥3 Unformed bowel movements per day (UBM): 4.5%
[5]; Day 24
  % of patients with <3 Unformed bowel movements per day (UBM): 96.2%
  % of patients with ≥3 Unformed bowel movements per day (UBM): 3.8%
[5]; Day 25
  % of patients with <3 Unformed bowel movements per day (UBM): 96.2%
  % of patients with ≥3 Unformed bowel movements per day (UBM): 3.8%
[5]; Day 26
  % of patients with <3 Unformed bowel movements per day (UBM): 97.3%
  % of patients with ≥3 Unformed bowel movements per day (UBM): 2.7%
[5]; Day 27
  % of patients with <3 Unformed bowel movements per day (UBM): 98.5%
  % of patients with ≥3 Unformed bowel movements per day (UBM): 1.5%
[5]; Day 55
  Treatment Difference in recurrence rate (Extended fidaxomicin − Standard vancomycin): −12.6%
[5]; Day 55, extended fidaxomicin
  OR (Odds Ratio) vs. Vancomycin, recurrence of CDI: 0.21
[5]; [10]
  Recurrence of CDI (%) at visit 5 (Day 55): (3.5) %
  Recurrence of CDI at visit 5 (Day 55) (patients/N): 5/142
[5]; Day 55, extended fidaxomicin or standard vancomycin, listed as FDX
  Recurrence of CDI (%) at visit 5 (Day 55): 3.5%
[5]; [11]
  Recurrence 30 days after end of treatment (%): 3.5%
  Recurrence 30 days after end of treatment (patients/N): 5/142
[5]; [12]
  Sustained clinical cure (%) at 30 days after end of treatment: (86.7) %
  Sustained clinical cure at 30 days after end of treatment (patients/N): 124/143
[5]; extended fidaxomicin Day 55, standard vancomycin Day 40, listed as FDX
  Sustained clinical cure (%) at 30 days after end of treatment: 86.7%
[6]
  BCS class: Class IV
[7]
  Recurrence 30 days after end of treatment (%): 12.7%
  Recurrence 30 days after end of treatment (patients/N): 28/221
  Sustained clinical cure 30 days after end of treatment (%): 76.6%
  Sustained clinical cure 30 days after end of treatment (patients/N): 193/252

Reference: patent publication US10548912B2, “Dosage regimen for a tiacumicin compound” (Astellas Pharma Europe Ltd., priority 2015, dated 2020)
